Results as given in patent US4272507A, “Phenylaminothiophenacetic acids, their synthesis, compositions and use” (priority 1978, dated 1981).
Where two headings read alike, the source gives them in different places.

What was measured:
[1] = test system: formation of granulation tissue after subcutaneous implantation of cotton; assay: Chronic antiphlogistic action: cotton pellet test (formation of granulation tissue) in rats; details: rats; for Therapeutic quotient LD50/ED20: cotton pellet test, LD50 7 days oral; for Inhibition of the formation of granulation tissue after treatment for 7 days: sodium salt
Procedure: (§1) Biol. Med., 111 (1962) 544]}, on chronic inflammatory processes {Cotton pellet test on rats [Winter et al.: J. Pharmacol. exp. Therap., 141 (1963) 369]} and on adjuvant arthritis [based on the method of Perrine et al., Brit. J. Pharmacol., 21 (1963) 127] is determined.
Experimental procedure for investigating the influence of the compounds to be tested on the formation of granulation tissue after implantation of cotton in rats (so-called cotton pellet method):
1 cotton pellet (manufacturer: Messrs. Hartmann/Heidenheim; cotton pellets size 2, No. 4865/2) which weighs 13.0±0.5 mg and has been impregnated beforehand with 0.1 ml of a solution of 0.5 mg of penicillin G and 0.8 mg of streptomycin sulfate/1 ml of distilled water is in each case implanted subcutaneously into the shoulder-blade region, on both sides, of male Sprague-Dawley rats (groups of 8 animals each; weight of each animal: 150 to 170 g) under diethyl ether anaesthesia and under sterile conditions. The cut skin is closed by means of clamps.
The compounds to be tested (in the form of the sodium salt in aqueous solution) or the corresponding amount (5 ml/kg/day) of tapwater (=control group) are administered orally each day on seven successive days. On the eighth day, the animals are killed and the cotton granules are exposed carefully, that is to say preserving the fibrous tissue capsule, dried (15 hours at 120°) and weighed. By substracting the weight of the cotton pellets, the amount of newly formed granulation tissue is obtained.
The percentage reduction in the average granuloma dry weight of a treated group compared with the control group (=100%) serves as a measure of the antiproliferative action of a compound.

[2] = in vivo; details: rat, po
[3] = test system: carrageenin edema of the hind paw of rats; assay: Acute antiphlogistic action: carrageenin edema of the hind paw of rats after single oral administration; details: for ED50: Rattus norvegicus, po, read-out: ED50 (dose which causes a maximum edema inhibition of 50%); for Therapeutic quotient LD50/ED50: carrageenin edema, LD50 7 days oral; for Therapeutic quotient LD50/ED50 / Maximum inhibition of carrageenin edema within 7 hours after oral administration: rats; for Maximum inhibition of carrageenin edema within 7 hours after oral administration: single oral dose 3.0 mg/kg
Procedure: as §1
The influence of the compounds to be tested on carrageenin edema of the hind paw of rats was determined as follows:
The rats are kept at 24° C.
The paw volume of each rat is determined (2 to 3 individual measurements in each case) before edema provocation and at hourly intervals for 7 hours after edema provacation. The average percentage paw swelling of each treated group determined at the specified times after the carrageenin injection is related to that of the untreated control group (=100%).
The maximum percentage edema inhibition serves as a measure of the antiphlogistic action.
The paw volume is determined plethysmometrically. Measuring principle: the volume of liquid displaced through the paw of the rat is recorded digitally via an electromechanical pressure transducer (Statham P 23 V, 0-200 mm Hg).
The doses indicated for the compounds tested were administered in a volume of liquid of 20 ml/kg.

[4] = test system: yeast-induced fever in rats; assay: Antipyretic action: yeast-induced fever in rats; type: in vivo, rats (female Sprague-Dawley); details: for ED (1.5 degC): Rattus norvegicus, po, read-out: ED1.5 (dose which causes a maximum reduction in yeast-induced fever of 1.5° C.); for Therapeutic quotient LD50/ED2.5: yeast-induced fever, LD50 7 days
Procedure: The antipyretic action is determined by the influence of the compounds to be tested on yeast-induced fever in rats.
Hyperthermia is produced in female Sprague-Dawley rats (in groups of 5 animals; weight of each animal: 160 to 180 g) by subcutaneous injection (neck) of 10 ml/kg of a 20 percent strength aqueous brewer's yeast suspension (brewer's yeast "Heliosan"/Hefereformwerk Radolfzell). 24 hours after the yeast injection, the compounds to be tested are administered orally to the animals in a volume of liquid of 5 ml/kg, and a control group receives the corresponding amount of tapwater. The feed (Altromin®R, water ad libitum) was withdrawn from the rats 18 hours beforehand. The rats are kept at about 23° C.
The body temperature is recorded 1 hour before administration of the substance and at hourly intervals after administration of the substance.
[…] The body temperature is measured with a temperature probe (Tastomed H, Braun electronic).

[5] = test system: rats; details: 7 days (Table 6)
[6] = rats, single oral dose 0.3 mg/kg

Row | Compound | Therapeutic quotient LD50/ED20 [1] | Inhibition of the formation of granulation tissue after treatment for 7 days ([1]; 7 x 3.0 mg/kg/day orally) [%] | LD50 at 168 h [2] [mg/kg] | ED50 [3] [mg/kg] | Therapeutic quotient LD50/ED50 [3] | Maximum inhibition of carrageenin edema within 7 hours after oral administration [3] [%] | ED (1.5 degC) ([4]; rats, perorally, single dose) [mg/kg] | Maximum reduction in yeast-induced fever over a period of 7 hours [4, 6] [°C] | Maximum reduction in yeast-induced fever over a period of 7 hours ([4]; rats, single oral dose 1 mg/kg) [°C] | Therapeutic quotient LD50/ED2.5 ([4]; rats) | further results
1 | Cc1cccc(Nc2cscc2CC(=O)O)c1Cl [Compound 7, 4-(2-chloro-3-methylanilino)-3-thiophenacetic acid] | > 5.7 | 19 | > 20 |  |  |  |  |  |  |  | Inhibition of the formation of granulation tissue after treatment for 7 days ([1]; 7 x 10.0 mg/kg/day orally): 27%
2 | Cc1c(Cl)cccc1Nc1cscc1CC(=O)O [Compound 8, 4-(3-chloro-2-methylanilino)-3-thiophenacetic acid] |  |  | > 30 | ~3 | > 10 | 49 |  |  |  |  | 
3 | Cc1cccc(C)c1Nc1cscc1CC(=O)O [Compound 9, 4-(2,6-dimethylanilino)-3-thiophenacetic acid] | > 10 | 19 | > 30 |  |  |  | 0.3 | 1.5 | 2.3 | > 100 | Maximum reduction in yeast-induced fever over a period of 7 hours ([4]; rats, single oral dose 0.1 mg/kg): 1.0 °C; LD50, lethal action after administration for 7 days [5]: > 30 mg/kg/day
4 | O=C(O)Cc1csc(Cl)c1Nc1c(Cl)cccc1Cl [Compound 10, 5-chloro-4-(2,6-dichloroanilino)-3-thiophenacetic acid] |  |  |  |  |  |  |  | 1.2 |  |  | ED (1.5 degC) [4]: 0.5 mg/kg; Maximum reduction in yeast-induced fever over a period of 7 hours ([4]; rats, single oral dose 0.6 mg/kg): 1.6 °C
5 | Cc1cccc(Cl)c1Nc1ccsc1CC(=O)O [Compound 11, 3-(2-chloro-6-methylanilino)-2-thiophenacetic acid] |  |  | > 20 | ~3 | > 6.7 | 49 |  |  |  |  | 
6 | O=C(O)Cc1cscc1Nc1c(F)cccc1F [Compound 12, 4-(2,6-difluoroanilino)-3-thiophenacetic acid] |  |  | > 30 |  |  |  | 0.9 | 0.5 | 1.6 | > 33 | 
